Data on 10 compounds can be found in publication PMC4237480, “Cytochrome P450 induction properties of food and herbal-derived compounds using a novel multiplex RT-qPCR in vitro assay, a drug–food interaction prediction tool” (Food Science & Nutrition, 2014).

Each structure is given as a SMILES string.

The subject of data set [1] is CYP1A2. Details: method as in Pekthong et al. ([2008]). The following applies: human microsomes; ref Pekthong et al. ([2008]); cited from earlier work.
The test system of data set [2] is 3A4. More on the design: method as in Pekthong et al. [2009]. The conditions noted are these: human hepatocytes; ref Pekthong et al. [2009]; cited from earlier work.
In data set [3] the test system is CYP3A4. The data set can be described thus: western blot analysis, CYP3A4 protein expression in HepG2 cells. The following applies: for effect on CYP3A4 protein expression: HepG2 cells, 48 h, western blot densitometry normalized to β-actin, vs DMSO control.
Data set [4] relates to CYP2D6. As to the kind of experiment: western blot analysis, CYP2D6 protein expression in HepG2 cells. The conditions noted are these: for effect on CYP2D6 protein expression: HepG2 cells, 48 h, western blot densitometry normalized to β-actin, vs DMSO control. Type of data set: in vitro ADME, human.
Data set [5] has as its system CYP1A2. Details: method as in Pekthong et al. [2009]. The following applies: human hepatocytes; ref Pekthong et al. [2009]; cited from earlier work.
Data set [6] concerns 2C9. More on the design: method as in Pekthong et al. [2009]. The conditions noted are these: human hepatocytes; ref Pekthong et al. [2009]; cited from earlier work.
For data set [7], the system named is CYP2C9. Details: method as in Pekthong et al. ([2008]). The following applies: human microsomes; ref Pekthong et al. ([2008]); cited from earlier work.
Data set [8] concerns CYP3A4. More on the design: method as in Pekthong et al. ([2008]). The following applies: human microsomes; ref Pekthong et al. ([2008]); cited from earlier work.
Data set [9] deals with CYP3A4. As to the kind of experiment: multiplex RT-qPCR, CYP3A4 mRNA expression in HepG2 cells.
The test system of data set [10] is CYP1A2. The data set can be described thus: multiplex RT-qPCR, CYP1A2 mRNA expression in HepG2 cells. The following applies: for concentration with statistically significant CYP1A2 mRNA induction: P < 0.05 vs control; for concentration from which CYP1A2 mRNA induction was detected/observed: not necessarily statistically significant.
The test system of data set [11] is CYP2D6. As to the kind of experiment: multiplex RT-qPCR, CYP2D6 mRNA expression in HepG2 cells. The conditions noted are these: concomitant furafylline and omeprazole, control treated with omeprazole.
Data set [12] concerns CYP1A2. The data set can be described thus: western blot analysis, CYP1A2 protein expression in HepG2 cells. Type of data set: in vitro ADME, human. The conditions noted are these: for effect on CYP1A2 protein expression: HepG2 cells, 48 h, western blot densitometry normalized to β-actin, vs DMSO control. How it is done: All compounds were diluted with concentrated DMSO.

Data set [13] concerns CYP3A4. More on the design: method as in Graber-Maier et al. [2010]. The conditions noted are these: intestinal cells; ref Graber-Maier et al. [2010]; cited from earlier work.
The subject of data set [14] is CYP1A2. Details: method as in Wen et al. [2002]. The following applies: 48 h exposure, cultured human hepatocytes; ref Wen et al. [2002]; cited from earlier work.
For data set [15], the system named is PXR-responsive genes like CYP3A4. More on the design: method as in Ruhl et al. [2004]. The conditions noted are these: HepG2 cells; ref Ruhl et al. [2004]; cited from earlier work.
Data set [16] has as its system cytochrome P450 (CYP) 3A4. More on the design: method as in Sunaga et al. [2012]. The conditions noted are these: ref Sunaga et al. [2012]; cited from earlier work.
Data set [17] has as its system CYP3A4. Details: method as in Chow et al. [2010]. The conditions noted are these: healthy subjects; ref Chow et al. [2010]; cited from earlier work.
Data set [18] concerns CYP1A2. Details: method as in Chow et al. [2010]. The following applies: healthy subjects, ref Chow et al. [2010], cited from earlier work.
The test system of data set [19] is CYP2C9. Details: method as in Chow et al. [2010]. The following applies: healthy subjects; ref Chow et al. [2010]; cited from earlier work.
Data set [20] has as its system CYP2D6. Details: method as in Chow et al. [2010]. The conditions noted are these: healthy subjects; ref Chow et al. [2010]; cited from earlier work.
Where [21] appears, read: HepG2, concomitant furafylline and omeprazole, control treated with omeprazole.

Turning to `C=C1CC[C@@H]2[C@](C)(CO)[C@H](O)CC[C@@]2(C)[C@@H]1C/C=C1/C(=O)OC[C@H]1O` [andrographolide], the IC50 in data set [1] was greater than 100000 nM; in data set [7] it was greater than 100000 nM; in data set [8] it was […]. For the same compound, the “mRNA expression of CYP3A4” value in [2] is recorded as “decrease”. Further, in data set [3], the “effect on CYP3A4 protein expression” value was “did not affect”. In addition, the “effect on CYP2D6 protein expression” value in data set [4] is listed as “up-regulated”. In addition, the “mean up-regulation of the CYP2D6 protein” value in data set [4] (all concentrations tested, HepG2, 48 h) is reported as “less than twofold changes”. Moreover, the “mRNA expression of CYP1A2” value in data set [5] was “decrease”. Further, the “mRNA expression of CYP2C9” value in data set [6] is listed as “decrease”.
In the case of `Cc1nc2c([nH]1)c(=O)n(C)c(=O)n2Cc1ccco1` [furafylline], the “CYP3A4 mRNA expression, furafylline with omeprazole” value in data set [9] (setting [21]) is “no significant changes”. Moreover, the “CYP3A4 protein expression, furafylline with omeprazole” value in [3] (setting [21]) is recorded as “no significant changes”. In [10] (HepG2, furafylline 2 h before omeprazole, concomitant treatment, compared with omeprazole-treated cells (control)), the “CYP1A2 mRNA expression in omeprazole-induced cells” value was “significantly reduced”. In addition, the “CYP2D6 protein expression, furafylline with omeprazole” value in data set [4] (setting [21]) is “no significant changes”. Besides, the “CYP2D6 mRNA expression, furafylline with omeprazole” value in [11] was “no significant changes”. In data set [12] (setting [21]), the “CYP1A2 protein expression in omeprazole-induced cells” value is reported as “reduction was statistically insignificant”.
With `CC(=O)N1CCN(c2ccc(OCC3COC(Cn4ccnc4)(c4ccc(Cl)cc4Cl)O3)cc2)CC1` (centres unmarked) [ketoconazole, reference compound], the “effect on CYP3A4 protein expression” value in [3] was “differences were not proved to be significant”. Moreover, the IC50 in data set [8] is […].
Regarding `COc1ccc2[nH]c([S+]([O-])Cc3ncc(C)c(OC)c3C)nc2c1` (centres unmarked) [omeprazole], the “CYP3A4 mRNA induction” value in [9] (0.1 μmol/L, HepG2, 48 h) is less than 1.5 fold change. Also, the “concentration with significant CYP3A4 mRNA induction” value in [9] (HepG2, 48 h, P < 0.05 vs control) was determined as 100 nM. In [10] (10 μmol/L, HepG2, 48 h, Ct 33 assumed for untreated control), the “CYP1A2 mRNA up-regulation” value was 24 fold changes. Moreover, in data set [10] (HepG2, 48 h), the “concentration with statistically significant CYP1A2 mRNA induction” value is no less than 10000 nM and the “concentration from which CYP1A2 mRNA induction was detected/observed” value is no less than 1000 nM. Further, in [4], the “effect on CYP2D6 protein expression” value is listed as “no effects”. The “effect on CYP1A2 protein expression” value in data set [12] is reported as “statistically insignificant”.
Take `COc1cc(/C=C/C(=O)CC(=O)/C=C/c2ccc(O)c(OC)c2)ccc1O` [curcumin]: the “effect on CYP3A4 protein expression” value in data set [3] is “significant induction”. Also, the “effect on CYP2D6 protein expression” value in data set [4] is “does not affect significantly”. Also, in [13], the “mRNA expression of CYP3A4” value is “did not affect”.
For the compound `Nc1ccc(S(=O)(=O)Nc2ccnn2-c2ccccc2)cc1` [sulfaphenazole, reference compound], in data set [7], the IC50 was […].
Regarding `CC(C)=CCC/C(C)=C/COc1c2ccoc2cc2oc(=O)ccc12` [bergamottin], the “effect on CYP3A4 protein expression” value in data set [3] is “did not affect”. For the same compound, the “CYP1A2 mRNA induction” value in [10] (1 μmol/L, HepG2, 48 h, Ct 33 assumed for untreated control) is recorded as roughly 11 fold increase. In data set [10] (HepG2, 48 h), the “concentration from which CYP1A2 mRNA induction was detected/observed” value was no less than 1000 nM. In addition, the “effect on CYP2D6 protein expression” value in [4] is “did not affect”. Besides, the “effect on CYP1A2 protein expression” value in data set [12] was “only a slight induction”. In addition, in [14], the “levels of CYP1A2 protein and mRNA” value was “increased levels”.
With `CC(C)=CCC/C(C)=C/C=C/C(C)=C/C=C/C(C)=C/C=C/C=C(C)/C=C/C=C(C)/C=C/C=C(\C)CCC=C(C)C` [lycopene], in data set [15], the “activation potential on PXR-responsive genes like CYP3A4” value was “no activation potential”. In addition, in data set [3], the “effect on CYP3A4 protein expression” value is “did not appear to have any effects”. Further, the “inhibition of CYP3A4-mediated drug metabolism” value in [16] is given as “does not inhibit”. In data set [4], the “effect on CYP2D6 protein expression” value is “did not appear to have any effects”.
In the case of `O=c1cc(-c2ccccc2)oc2ccc3ccccc3c12` [β-naphthoflavone], the IC50 in [1] was 85 nM. In addition, the “effect on CYP3A4 protein expression” value in data set [3] is recorded as “remained either unchanged or there were slight changes that were statistically insignificant”. In addition, the “CYP1A2 mRNA up-regulation” value in data set [10] (5 μmol/L, HepG2, 48 h, estimated, Ct 33 assumed for untreated control) is reported as “more than sixfold change”; in data set [10] (50 μmol/L, HepG2, 48 h, estimated, Ct 33 assumed for untreated control), 26 fold change. In data set [10] (HepG2, 48 h), the “concentration from which CYP1A2 mRNA induction was detected/observed” value is no less than 5000 nM. The “effect on CYP2D6 protein expression” value in data set [4] is given as “remained either unchanged or there were slight changes that were statistically insignificant”. Moreover, the “concentration with significantly higher CYP1A2 protein (mean relative intensity)” value in data set [12] (HepG2, 48 h, western blot) is no less than 5000 nM. The “effect on CYP1A2 protein expression” value in [12] is given as “significantly higher”.
With `Oc1ccc(/C=C/c2cc(O)cc(O)c2)cc1` [resveratrol], in [17], the “phenotypic index of CYP3A4” value is recorded as “inhibit”. In [10] (HepG2, 48 h), the “concentration with statistically significant CYP1A2 mRNA induction” value was determined as 50000 nM and the “concentration from which CYP1A2 mRNA induction was detected/observed” value is no less than 100 nM. Further, the “CYP2D6 protein induction, average” value in data set [4] (0.1 μmol/L, HepG2, 48 h) is recorded as “more than twofold changes”. The “effect on CYP2D6 protein expression” value in [4] is “statistically significant CYP2D6 protein induction”. The “decrease in the caffeine/paraxanthine metabolic ratio” value in [18] (4 weeks of 1 g daily) is on record as 16%. For the same compound, the “phenotypic index of CYP1A2” value in data set [18] is reported as “induces”. The “phenotypic index of CYP2C9” value in data set [19] is given as “inhibit”. In addition, the “phenotypic index of CYP2D6” value in data set [20] is given as “inhibit”. The “effect on CYP1A2 protein expression” value in [12] is “insignificant”.
